A short description of this data set: 17O NMR on Gd(TRITA-bz-NO2). Format: physicochemical. The conditions noted are these: for A/ħ / ER / ΔH^x / ΔS* / τR^298: from ^17O NMR data; for kex^298: water exchange rate from ^17O NMR data; for In(1/T1r), reduced longitudinal ^17O relaxation rate / In(1/T2r), reduced transverse ^17O relaxation rate / Δwr, reduced ^17O chemical shift: B = 9.4 Tesla. From the text:
The rate of water exchange, Kes, has been measured on Gd(TRITA-bz-NO2) by ^17O NMR. The numerical experimental data (reduced transverse and longitudinal ^17O relaxation rates, reduced chemical shifts) measured on a Gd(TRITA-bz-NO2) solution are shown in Table 6.

On to `O=C([O-])CN1CCN(CC(=O)[O-])CCN(CC(=O)[O-])CCN(CC(=O)[O-])CC1.[Gd+3]` [Gd(DOTA)(H2O)^−, reference compound], for which the A/ħ is −3.7 10^6 rad s^−1, the ER came to 3.85 kcal/mol, the “ΔH^x” value was 11.9 kcal/mol and the “ΔS*” value is listed as “+10.5 Jmol^−1K^−1”. Besides, the “τR^298” value turned out to be 77 ps and the “kex^298” value was 4.1 10^6 s^−1.
Consider `O=C([O-])CN1CCN(CC(=O)[O-])CCN(CC(=O)[O-])CC(Cc2ccc([N+](=O)[O-])cc2)CN(CC(=O)[O-])CC1.[Gd+3]` [Gd(TRITA-bz-NO2)], for which the “water exchange rate Kex^298” value amounted to 1.8e+08 s⁻¹, the A/ħ is reported as −3.5 ± 0.2 10^6 rad s^−1, the ER was 5.57 ± 0.406 kcal/mol and the “ΔH^x” value is 6.41 ± 0.19 kcal/mol. Further, the “ΔS*” value was “+3.0 ± 1.0 Jmol^−1K^−1”, the “τR^298” value is given as 223 ± 20 ps and the “kex^298” value was 180 ± 10 10^6 s^−1. Besides, under “T 273.05 K”, the “In(1/T1r), reduced longitudinal ^17O relaxation rate” value stood at 11.42; the “In(1/T2r), reduced transverse ^17O relaxation rate” value amounted to 13.55; the “Δwr, reduced ^17O chemical shift” value is −9.34E+05 Hz. Besides, under “T 281.75 K”, the “In(1/T1r), reduced longitudinal ^17O relaxation rate” value amounted to 11.08; the “In(1/T2r), reduced transverse ^17O relaxation rate” value worked out at 13.31; the “Δwr, reduced ^17O chemical shift” value is on record as −9.23E+05 Hz. Under “T 292.45 K”, the “In(1/T1r), reduced longitudinal ^17O relaxation rate” value is reported as 10.60; the “In(1/T2r), reduced transverse ^17O relaxation rate” value is listed as 12.96; the “Δwr, reduced ^17O chemical shift” value was −9.15E+05 Hz. Moreover, for the setting “T 302.25 K”, the “In(1/T1r), reduced longitudinal ^17O relaxation rate” value worked out at 10.44; the “In(1/T2r), reduced transverse ^17O relaxation rate” value turned out to be 12.54; the “Δwr, reduced ^17O chemical shift” value is −8.72E+05 Hz. Where the note is “T 317.25 K”, the “In(1/T1r), reduced longitudinal ^17O relaxation rate” value is given as 9.97; the “In(1/T2r), reduced transverse ^17O relaxation rate” value amounted to 12.03; the “Δwr, reduced ^17O chemical shift” value was −8.28E+05 Hz. Moreover, for the setting “T 330.25 K”, the “In(1/T1r), reduced longitudinal ^17O relaxation rate” value came to 9.58; the “In(1/T2r), reduced transverse ^17O relaxation rate” value stood at 11.56; the “Δwr, reduced ^17O chemical shift” value was −7.07E+05 Hz. In addition, for the setting “T 349.45 K”, the “In(1/T1r), reduced longitudinal ^17O relaxation rate” value came out at 9.14; the “In(1/T2r), reduced transverse ^17O relaxation rate” value is 11.06; the “Δwr, reduced ^17O chemical shift” value is on record as −6.13E+05 Hz. Further, where the note is “according to the ^17O chemical shifts”, the “inner sphere water molecules of the complex” value was 1. Also, the “water exchange rate, times higher than that measured on Gd(DOTA)” value (relative to Gd(DOTA)) is listed as “over 40 times”.

Values taken from patent US20040258620A1, “(Ethylene)-( propylene)-triaminepentaacetic acid derivatives, process for their production, and their use for the production of pharmaceutical agents” (priority 2001, published 2004).
